Measured values published in patent publication US20240083981A1, “TREATMENT OF HERPES SIMPLEX VIRUS INFECTION” (priority 2022, published 2024).

What was measured:
clinical HSV-1 isolates = assay: Inhibition of clinically derived HSV-1 isolates in Vero cells, cell viability assay; format: cell-based; settings: US origin
Description: Four American isolates (HSV-1 Bethesda and HSV-1 RH; HSV-2 Bethesda and HSV-2 RH), 3 Asian isolates (HSV-2 JA-1, HSV-2 JA-2, and HSV-2 JA-3), and 4 isolates with ACV resistance (poly-mut, C7, C8, and IC) were investigated via a cell viability assay. […] Then, the mixtures were aliquoted into a 96-well plate seeded with Vero cells. After incubation for 48 hours at 37° C., the plate was washed with PBS once, and the viable cells were incubated with 1% Alamar blue for 1 hour.

HSV-1 RE TKnull = assay: microbe, parasite or virus in culture; settings: Human alphaherpesvirus 1, Vero, 24 h
HSV-2 333 TKnull = assay: microbe, parasite or virus in culture; settings: Human alphaherpesvirus 2, Vero, 24 h
[1] = Human alphaherpesvirus 1, Vero, HSV-1 RH

`Nc1nc2c(ncn2COCCO)c(=O)[nH]1` [ACV, acyclovir] was tested, and the IC90 (clinical HSV-1 isolates; HSV-1 Bethesda) was > 35.5 µM, the IC50 (clinical HSV-1 isolates; Human alphaherpesvirus 1, Vero, HSV-1 Bethesda) was 3.62 µM and the IC50 (clinical HSV-1 isolates; [1]) was 4.73 µM. The IC90 (clinical HSV-1 isolates; [1]) was > 35.5 µM, the IC50 (HSV-1 RE TKnull) was > 0.1 µM and the IC50 (HSV-2 333 TKnull) was > 0.1 µM.
